# What was measured:
# mouse pericytes [1] = experiment: Zinc concentration in pericytes (Zinpyr-1 fluorescence); type: cell-based
# From the text: FIG. 20 is a set of confocal microscope images of groups of mouse pericytes, which are not treated (CTL) or treated with finally-selected amlexanox (AMX) (PDEi), in which, to measure a zinc concentration, fluorescence intensity was detected by treating the cells with a fluorescent dye (Zinpyr-1) for detecting zinc ions.
# mouse pericytes [2] = experiment: Lysosome pH in bafilomycin A1-treated pericytes (LysoSensor, confocal microscope); type: cell-based; details: cells alkalized by bafilomycin A1
# From the text: A system that can visualize changes in intracellular lysosome pH with LysoSensor, which is a pH-sensitive lysosomal dye, in mouse pericytes using a confocal microscope was established (refer to Example 6) to observe whether amlexanox (AMX) is involved in the pH change of lysosomes in cells.
# FIG. 19 is a set of time-dependent confocal microscope images (left) of mouse pericytes when being treated with Bafilomycin A1, which is a vATPase inhibitor, and then stained with LysoSensor, and quantified data (right) thereof.
# Here, the images on the left side of FIG. 19 are obtained by treating mouse pericytes with bafilomycin A1, which is a vATPase inhibitor, and analyzing the cells using LysoSensor over time by a confocal microscope (top), and by treating the bafilomycin A1-treated mouse pericytes with the finally selected amlexanox (AMX) and analyzing the cells using LysoSensor over time by a confocal microscope (bottom).
# P301L tau = experiment: Tau accumulation on AMX treatment (western blotting); type: cell-based
# Procedure: (§1) Each type of cell was cultured under the culture conditions, a cell culture was restored, followed by preparing a particulate fraction in a 50 mM Tris buffer. Proteins obtained from the cell culture developed in a SDS polyacrylamide gel, transferred to an immobilon-P membrane (Millipore, USA), and reacted with antibodies overnight. Next day, western blots were washed, reacted with peroxidase-linked secondary antibodies at room temperature for 1 hour, followed by staining bands with 4-chloro-1-naphthol.
# (§2) FIG. 16 is a graph representing the percent activity (% activity) according to the concentrations of finally selected amlexanox (AMX) for various PDE isoforms, and FIGS. 17 and 18 show western blotting images representing the amyloid beta expression pattern and G93A SOD-1 and P301L tau expression when amyloid beta-accumulated pericytes and astrocytes are treated with the finally selected amlexanox (AMX).
# cathepsin L = experiment: Lysosomal function activity in astrocytes: degree of hydrolysis of cathepsin L; type: cell-based, mouse; details: bafilomycin A1-treated mouse astrocytes
# Procedure: Samples stained with enzymatic dyes such as cathepsin B and cathepsin L were administered into the cell culture to allow a reaction for 30 minutes, and changes in activity of lysosomes in cells were confirmed using a confocal microscope.
# Astrocytes were stained with a fluorescence-tagged lysosomal protein, and the degrees of hydrolysis of cathepsin B and cathepsin L, which are lysosomal proteins, were analyzed.
# FIG. 21 is a set of time-dependent confocal microscope images of mouse astrocytes, which are treated with bafilomycin A1, which is a vATPase inhibitor, to assess the degree of hydrolysis of cathepsin B (top) and cathepsin L (bottom).
# [3] = system: amyloid beta-accumulated pericytes and astrocytes; experiment: Amyloid beta expression pattern on AMX treatment (western blotting); type: cell-based, mouse; details: amyloid beta injected and accumulated in pericytes and astrocytes, then AMX
# Procedure: For astrocyte culture, first, cerebral cortices (neocortices) were dissociated from murine fetuses (3 weeks old), and the obtained cortical tissue was divided into single cells. […] New cells were cultured and used each time without passaging.
# as §1, §2
# G93A SOD-1 mice = experiment: Survival rate and motor behaviour in Lou Gehrig's disease animal model; type: in vivo, mouse
# From the text: G93A SOD-1 mice in which a mutant protein of the ALS-related gene SOD-1 (the expression of an amino acid at codon 93, in which glycine is substituted with alanine) of a human were used as Lou Gehrig's disease animal models. The G93A SOD-1 mice were purchased by the Jackson Laboratory (USA).
# In the animal models of Lou Gehrig's disease, spinal motor neuron death occurs, causing limb paralysis at one or both sides. The clinical scoring system was differentiated using the following neurological scoring system.
# The mice were euthanized at 0 points (Weydt et al. 2003). In the Lou Gehrig's disease animal models, which is one of the neurodegenerative disease models, a vehicle or amlexanox (AMX) was intraperitoneally administered at 2.5 mg/kg once daily for 5 days, and then a survival rate was measured through a behavioral experiment.
# The behavioral experiment was performed on each of the AMX-administered group and the control (Veh) once or twice a week before symptoms occur until death. A method of gradually increasing a speed from 4 rpm to 40 rpm and a method of exercising at a constant speed of 15 rpm for 10 minutes were selected. The time to fall off from a rod was recorded to analyze the difference between the AMX-administered group and the control group.
# Changes in survival rate were confirmed by intraperitoneal injection into G93A-SOD mice daily at various AMX concentrations.
# all PDE isoforms = experiment: HTS using all PDE isoforms as targets; type: biochemical
# Procedure: Compounds included in the library of 800 FDA-approved drugs were diluted 1/4 from a concentration of 100 μM and dispensed into each well in 96-well plates, and mixed with a PDE reactant to allow a PDE reaction with the drug for 1 hour at a constant temperature.
# The experiment was carried out in the same manner as used in screening of the FDA-approved drug library. […] Each of the screening library drugs were diluted 1/4 from 100 μM and dispensed into each well in 96-well plates, and mixed with a PDE reactant, followed by allowing a reaction between the drug and PDE for 1 hour for storage. After a stop solution was mixed with a AMP detection agent, the mixture was dispensed at 20 μl per well to allow a reaction for 10 minutes, followed by immediately measuring luminescence, and the experiment was performed according to a protocol provided by the kit used herein.
# The first selection started with PDE3 as a target, and after candidate drugs were selected, all PDE isoforms were tested.
# [4] = G93A-SOD mice, AMX at various concentrations, compared with untreated control
compound,measurement,setting,value
"CC(C)c1ccc2oc3nc(N)c(C(=O)O)cc3c(=O)c2c1 [amlexanox, 2-amino-7-isopropyl-5-oxo-5H-[1]benzopyrano[2,3-b] pyridine-3-carboxylic acid]",concentration of zinc in the cell,mouse pericytes [1],restored and increased to a normal level
same,time to restore (acidify) the lysosome pH environment to the original state,mouse pericytes [2],≤ 60 minutes
same,accumulation of toxic protein Tau,P301L tau,reduced
same,time to restore lysosomal activity of cathepsin L to the original state,cathepsin L,≤ 60 min
same,aggregation of amyloid beta protein,[3],inhibited
same,survival rate,"G93A SOD-1 mice; G93A SOD-1 mice, 2.5 mg/kg intraperitoneal once daily 5 days a week from week 10",130.2 ± 2.0 days
same,onset of ataxia,G93A SOD-1 mice; [4],slower
same,progression of ataxia,G93A SOD-1 mice; [4],reduced
same,survival rate,"G93A SOD-1 mice; G93A-SOD mice, daily intraperitoneal injection at various AMX concentrations, compared with Veh group",concentration-dependently increased
same,reducing efficacy for all PDE isoforms,all PDE isoforms,excellent reducing efficacy

# From patent US20210220340A1, “COMPOSITION FOR PREVENTION OR TREATMENT OF NEURODEGENERATIVE DISEASE” (THE ASAN FOUNDATION, priority 2018, published 2021)
